Assay results reported in US9364567B2, “Fragments of p97 and uses thereof” (biOasis Technologies, Inc., priority 2013, dated 2016).
Like-named read-outs stand apart in the source and are kept apart here.

Tested on: in vitro model of the blood brain barrier (brain capillary endothelial cells co-cultured with glial cells)
Test: In vitro BBB model: passage of p97 tryptic digest peptides, LC-MS/MS peak areas in luminal and abluminal compartments
Assay type: in vitro ADME, rat
Experimental: Experiments were performed to evaluate the passage of mixtures of p97 peptide fragments across the blood-brain barrier (BBB) using a relevant and predictive BBB in vitro model (see Cecchelli et al., Adv. Drug Deliv. Rev. 36:165-178, 1999). The model utilizes brain capillary endothelial cells co-cultured with glial cells, to closely mimic the in vivo BBB (see Lundquist et al., Pharm. Res. 16:976-981, 2002).
To provide an in vitro system for studying brain capillary functions, a process of co-culture that closely mimics the in vivo BBB was established by culturing brain capillary endothelial cells on one side of a filter and supportive glial cells on the other side. Specifically, endothelial cells were cultured in the upper compartment on the filter and glial cells in the lower compartment on the plastic of a six-wells plate (see FIGS. 7 and 8). Under these conditions, endothelial cells retain the appropriate endothelial markers (e.g., factor VIII—related antigen, non-thrombogenic surface, production of prostacyclin, angiotensin-converting enzyme activity), and also retain the relevant characteristics of the BBB (e.g., presence of tight junctions, paucity of pinocytotic vesicles, monoamine oxidase activity, γ-glutamyltranspeptidase activity, P-glycoprotein activity, specific receptors for low density lipoproteins, and transferrin).
After removing the meninges, the brain tissue was forced gently through a nylon sieve. DMEM (Dulbecco's modified Eagle medium) supplemented with 10% (v/v) fetal calf serum (FCS, same as Fetal Bovine Serum: FBS), 2 mM glutamine, and 50 μg·ml^−1 of gentamycin was used for the dissociation of cerebral tissue and development of glial cells. […]
The glial cells were plated at a concentration of about 1.25×10^5 cells/ml in plastic six-well plates and incubated at 37° C. with 5% CO2. The medium was changed twice a week. […] Then, sub-clones of endothelial cells frozen at passage 3 were cultured on a 60-mm-diameter gelatin-coated Petri dish. Confluent endothelial cells were trypsinized and plated on the upper side of the filters at a density of 4×10^5 cells/ml. The medium used for the co-culture was DMEM supplemented with 10% (v/v) calf serum (CS) and 10% (v/v) horse serum (HS), 2 mM glutamine, and 50 μg/ml of gentamycin, and 1 ng/ml of basic fibroblast growth factor was added every other day.
On the day of the experiments, Ringer-HEPES (NaCl, 150 mM; KCl, 5.2 mM; CaCl2, 2.2 mM; MgCl2 6H20, 0.2 mM; NaHCO3, 6 mM; HEPES, 5 mM; glucose, 2.8 mM) was added to the lower compartment (abluminal side) of a six-well plate (3 mL per well). Filters with or without endothelial cells were washed with the Ringer-HEPES solution for 10 minutes at 37° C. to minimize traces of serum, and were then transferred to each well of the six-well plate. A volume of 1 mL Ringer-HEPES solution containing the peptide fragments in combination with Lucifer Yellow (20 μM) was placed in the upper compartment (luminal side) of the well.
Experiments were performed in triplicate with filters containing a confluent monolayer of endothelial cells (for BBB integrity testing or evaluation of peptide fragment passage), or in triplicate with empty filters coated only with collagen (filter test). Incubations were performed on a rocking platform for 120 minutes at 37° C.

[1] = tryptic peptides, abluminal/luminal peak area ratio at 120 minutes, 0.4 um insert
[2] = tryptic peptides, abluminal/luminal peak area ratio at 120 minutes, 3.0 um insert
[3] = tryptic peptides, abluminal compartment, 120 minutes, 3 micron pore size, LC-MS/MS peak area
[4] = tryptic peptides, abluminal compartment, 120 minutes, 4 micron pore size, LC-MS/MS peak area
[5] = tryptic peptides, luminal compartment, 120 minutes, 3 micron pore size, LC-MS/MS peak area
[6] = tryptic peptides, luminal compartment, 120 minutes, 4 micron pore size, LC-MS/MS peak area

Substance: DSSHAFTLDELR (listed as Homo sapiens) [tryptic peptide fragment of human p97]
- Abl 120/Lum120 peak area ratio, 0.4 um insert: 0.98

Substance: YYDYSGAFR (listed as Homo sapiens) [tryptic peptide fragment of human p97]
- Abl 120/Lum120 peak area ratio, 0.4 um insert: 7.40

Substance: AQDLFGDDHNKNGFK [tryptic peptide fragment of human p97]
- Abl 120/Lum120 peak area ratio, 0.4 um insert [1]: 5.45
- Abl 120/Lum120 peak area ratio, 3.0 um insert [2]: 1.68

Substance: VPAHAWVR
- Abl 120/Lum120 peak area ratio, 0.4 um insert: 3.32
- Abl 120/Lum120 peak area ratio, 3.0 um insert: 3.56

Substance: GDSSGEGVCDKSPLER [tryptic peptide fragment of human p97]
- Ablum 120: Area [3]: 1.93E+09
- Ablum 120: Area [4]: 2.34E+09
- Abl 120/Lum120 peak area ratio, 0.4 um insert [1]: 4.93
- Abl 120/Lum120 peak area ratio, 3.0 um insert [2]: 3.80
- Lum 120: Area [5]: 5.08E+08
- Lum 120: Area [6]: 4.75E+08

Substance: WCVLSTPEIQK (listed as Homo sapiens) [tryptic peptide fragment of human p97]
- Lum 120: Area: 0.00E+00

Substance: CVGNSQERYYGYR (listed as Homo sapiens) [tryptic peptide fragment of human p97]
- Lum 120: Area: 0.00E+00

Substance: LKPEIQCVSAK (listed as Homo sapiens) [tryptic peptide fragment of human p97]
- Abl 120/Lum120 peak area ratio, 0.4 um insert: 4.81
- Abl 120/Lum120 peak area ratio, 3.0 um insert: 4.37

Substance: CGDMAVAFR (listed as Homo sapiens) [tryptic peptide fragment of human p97]
- Abl 120/Lum120 peak area ratio, 0.4 um insert: 2.26
- Abl 120/Lum120 peak area ratio, 3.0 um insert: 2.06

Substance: TVGWNVPVGYLVESGR [tryptic peptide fragment of human p97]
- Ablum 120: Area [3]: 0.00E+00
- Ablum 120: Area [4]: 1.38E+07
- Lum 120: Area [5]: 9.38E+07
- Lum 120: Area [6]: 1.01E+08

Substance: AVSDYFGGSCVPGAGETSYSESLCR [tryptic peptide fragment of human p97]
- Ablum 120: Area [3]: 5.49E+08
- Ablum 120: Area [4]: 7.98E+08
- Lum 120: Area [5]: 5.51E+09
- Lum 120: Area [6]: 5.03E+09

Substance: DSSHAFTLDELRGK [tryptic peptide fragment of human p97]
- Ablum 120: Area [3]: 1.99E+07
- Ablum 120: Area [4]: 2.37E+07
- Lum 120: Area [5]: 0.00E+00
- Lum 120: Area [6]: 0.00E+00

Substance: CGNMSEAFR (listed as Homo sapiens) [tryptic peptide fragment of human p97]
- Ablum 120: Area: 2.53E+07
- Lum 120: Area: 0.00E+00

Substance: RSSHVTIDTLK (listed as Homo sapiens) [tryptic peptide fragment of human p97]
- Abl 120/Lum120 peak area ratio, 0.4 um insert: 2.06
- Abl 120/Lum120 peak area ratio, 3.0 um insert: 1.23

Substance: SEDYELLCPNGAR (listed as Homo sapiens) [tryptic peptide fragment of human p97]
- Abl 120/Lum120 peak area ratio, 0.4 um insert: 13.05
- Abl 120/Lum120 peak area ratio, 3.0 um insert: 8.38

Substance: NYPSSLCALCVGDEQGR [tryptic peptide fragment of human p97]
- Ablum 120: Area [3]: 7.34E+07
- Ablum 120: Area [4]: 1.09E+08
- Lum 120: Area [5]: 6.15E+08
- Lum 120: Area [6]: 5.52E+08

Substance: LLNEGQR (listed as Homo sapiens) [tryptic peptide fragment of human p97]
- Ablum 120: Area: 0.00E+00

Substance: SSHVTIDTLKGVK (listed as Homo sapiens) [tryptic peptide fragment of human p97]
- Abl 120/Lum120 peak area ratio, 0.4 um insert: 2.42
- Abl 120/Lum120 peak area ratio, 3.0 um insert: 2.38

Substance: CLVENAGDVAFVR (listed as Homo sapiens) [tryptic peptide fragment of human p97]
- Ablum 120: Area: 1.30E+08
- Lum 120: Area: 5.49E+08

Substance: WCATSDPEQHK (listed as Homo sapiens) [tryptic peptide fragment of human p97]
- Abl 120/Lum120 peak area ratio, 0.4 um insert: 8.92
- Abl 120/Lum120 peak area ratio, 3.0 um insert: 7.41

Substance: ADVTEWRQCHLAR (listed as Homo sapiens) [tryptic peptide fragment of human p97]
- Ablum 120: Area: 4.26E+06
- Lum 120: Area: 0.00E+00

Substance: IQAEQVDAVTLSGEDIYTAGK [tryptic peptide fragment of human p97]
- Ablum 120: Area [3]: 0.00E+00
- Ablum 120: Area [4]: 0.00E+00
- Lum 120: Area [5]: 3.48E+06

Substance: MFDSSNYHGQDLLFKDATVR [tryptic peptide fragment of human p97]
- Ablum 120: Area [4]: 0.00E+00
- Lum 120: Area [6]: 0.00E+00

Substance: HSTVLENTDGK (listed as Homo sapiens) [tryptic peptide fragment of human p97]
- Ablum 120: Area: 0.00E+00

Substance: ADTDGGLIFRLLNEGQR [tryptic peptide fragment of human p97]
- Ablum 120: Area [3]: 0.00E+00
- Ablum 120: Area [4]: 5.53E+06
- Lum 120: Area [5]: 3.69E+07
- Lum 120: Area [6]: 3.36E+07

Substance: ADVTEWR (listed as Homo sapiens) [tryptic peptide fragment of human p97]
- Abl 120/Lum120 peak area ratio, 0.4 um insert: 12.76
- Abl 120/Lum120 peak area ratio, 3.0 um insert: 11.26

Substance: AVPVGEKTTYR (listed as Homo sapiens) [tryptic peptide fragment of human p97]
- Ablum 120: Area: 0.00E+00
- Lum 120: Area: 0.00E+00

Substance: ADTDGGLIFR (listed as Homo sapiens) [tryptic peptide fragment of human p97]
- Abl 120/Lum120 peak area ratio, 0.4 um insert: 1.95
- Abl 120/Lum120 peak area ratio, 3.0 um insert: 1.44

Substance: DLLFKDSTSELVPIATQTYEAWLGHEYLHAMK [tryptic peptide fragment of human p97]
- Ablum 120: Area [4]: 0.00E+00
- Lum 120: Area [6]: 3.76E+07

Substance: LCRGDSSGEGVCDK [tryptic peptide fragment of human p97]
- Ablum 120: Area [3]: 2.64E+05
- Ablum 120: Area [4]: 5.97E+05
- Abl 120/Lum120 peak area ratio, 0.4 um insert [1]: 2.45
- Abl 120/Lum120 peak area ratio, 3.0 um insert [2]: 1.21
- Lum 120: Area [5]: 2.17E+05
- Lum 120: Area [6]: 2.44E+05

Substance: EHGLKPVVGEVYDQEVGTSYYAVAVVRR [tryptic peptide fragment of human p97]
- Ablum 120: Area [3]: 1.70E+07
- Ablum 120: Area [4]: 2.62E+07
- Lum 120: Area [5]: 0.00E+00
- Lum 120: Area [6]: 0.00E+00
